System: Rattus norvegicus
[1] = developmental, oral, gavage, F, Wistar, generation: F1, F1: novel object test (time exploring both objects, trial 2) + F1: novel object test (time exploring familiar object, trial 2)
[2] = developmental, oral, gavage, M, Wistar, generation: F1, F1: active avoidance (shuttle box, conditioned avoidance response, 4th block) + F1: passive avoidance (avoidance latency) + F1: rotarod (…
[3] = developmental, oral, gavage, M, Wistar, generation: F1, F1: auditory startle reflex (peak latency) + F1: auditory startle reflex (pre-pulse inhibition peak latency) + F1: vocalization (number …
[4] = subchronic, duration: 3 months, oral, drinking water, M/F, Sprague-Dawley, Morris water maze (escape time, acquisition, day 1) + Morris water maze (escape time, acquisition, day 5)
[5] = subchronic, duration: 3 months, oral, drinking water, M/F, Sprague-Dawley, Morris water maze (escape time, acquisition, day 6)
[6] = subchronic, duration: 12 weeks, oral, drinking water, M, Sprague-Dawley, territorial aggression (ventral presenting posture events of stud male)
[7] = subchronic, duration: 30 days, oral, drinking water, M, Wistar, active avoidance (shuttle box, number of avoidances of conditioned shock stimulus)

[F-].[Na+] [Sodium fluoride] gave an NOEL (developmental, oral, gavage, F, Wistar, generation: F1, F1: auditory startle reflex (amplitude) + F1: auditory startle reflex (peak latency) + F1: auditory startle reflex (pre-pulse inhibition …) of 2.26 mg/kg-day, an LOEL [1] of 2.26 mg/kg-day and an NOEL [1] of 1.13 mg/kg-day. The LOEL (developmental, oral, gavage, M/F, Sprague-Dawley, generation: F1, F1: air righting + F1: Morris water maze (escape time, probe test, day 5) + F1: Morris water maze (platform crossing, probe test, day 5) + …) was 3.44 mg/kg-day, the NOEL (developmental, oral, gavage, M/F, Sprague-Dawley, generation: F1, F1: auditory startle (response to metal object sound) + F1: cliff avoidance) was 3.44 mg/kg-day and the NOEL (developmental, oral, gavage, M, Wistar, generation: F1, F1: active avoidance (shuttle box, conditioned avoidance response, 1st block) + F1: novel object test (time exploring both objects, trial 2…) was 2.26 mg/kg-day. It also gave an LOEL [2] of 2.26 mg/kg-day, an NOEL [2] of 1.13 mg/kg-day and an LOEL (developmental, oral, gavage, M, Wistar, generation: F1, F1: auditory startle reflex (amplitude)) of 1.13 mg/kg-day. For the same compound, the LOEL [3] was 2.26 mg/kg-day, the NOEL [3] was 1.13 mg/kg-day and the LOEL (developmental, oral, gavage, M, Wistar, generation: F1, F1: sexual behavior (mount/intromission frequency) + F1: sexual behavior (mount/intromission latency)) was 1.13 mg/kg-day. For the same compound, the LOEL (short-term, duration: 14 days, injection, intraperitoneal, M, Wistar, rotarod (endurance time)) was 9.05 mg/kg-day, the LOEL [4] was 1.36 mg/kg-day and the NOEL [4] was 0.68 mg/kg-day. For the same compound, the LOEL [5] was 3.27 mg/kg-day, the NOEL [5] was 0.33 mg/kg-day and the NOEL (subchronic, duration: 3 months, oral, drinking water, M/F, Sprague-Dawley, Morris water maze (platform crossing, probe test, day 7) + Morris water maze (time in target quadrant, probe test, day 7)) was 3.27 mg/kg-day. The LOEL (subchronic, duration: 3 months, oral, drinking water, M/F, Wistar, passive avoidance (step-down test, time to move from rubber mat to electrified bar, session 2, day 30) + passive avoidance (step-down test, …) was 5.84 mg/kg-day, the LOEL (subchronic, duration: 3 months, oral, drinking water, M, Sprague-Dawley, Morris water maze (escape time, acquisition, day 1) + Morris water maze (escape time, acquisition, day 11) + Morris water maze (escape time…) was 7.52 mg/kg-day and the NOEL (subchronic, duration: 3 months, oral, drinking water, M, Wistar, Morris water maze (entries into target quadrant, probe test, day 4) + Morris water maze (escape time, acquisition, day 2) + Morris water …) was 3.34 mg/kg-day. The LOEL (subchronic, duration: 3 months, oral, gavage, M/F, Sprague-Dawley, Morris water maze (escape time, acquisition day 1) + Morris water maze (escape time, acquisition, day 5)) was 9.05 mg/kg-day, the NOEL (subchronic, duration: 3 months, oral, gavage, M, Albino, open field (ambulation distance) + open field (ambulation time) + open field (immobility time) + open field, stereotypic events + open field…) was 9.05 mg/kg-day and the LOEL (subchronic, duration: 3 months, oral, gavage, M, Albino, open field (squares crossed)) was 4.52 mg/kg-day. For the same compound, the LOEL (subchronic, duration: 3 months, oral, gavage, M, Wistar, Y-maze (number of training runs to meet 90% learning standard, day 23) + Y-maze (number of training runs to meet 90% learning standard, day …) was 6.67 mg/kg-day, the NOEL (subchronic, duration: 12 weeks, oral, drinking water, M, Sprague-Dawley, sexual behavior (ejaculation latency) + territorial aggression (fights with stud male)) was 18.8 mg/kg-day and the LOEL (subchronic, duration: 12 weeks, oral, drinking water, M, Sprague-Dawley, sexual behavior (intromission latency) + sexual behavior (post-ejaculatory interval) + sexual behavior (time to first mount) + sexual …) was 6.27 mg/kg-day. The LOEL [6] was 18.8 mg/kg-day, the NOEL [6] was 6.27 mg/kg-day and the NOEL (subchronic, duration: 12 weeks, oral, gavage, Wistar, open field (ambulation distance, 12 wks) + open field (ambulation distance, 3 wks) + open field (ambulation events, 12 wks) + open field (…) was 2.3 mg/kg-day. For the same compound, the NOEL (subchronic, duration: 30 days, oral, drinking water, M/F, Wistar, activity cage (ambulatory events) + activity cage (head turning events) + activity cage (head turning time) + activity cage (rearing events…) was 10.4 mg/kg-day, the LOEL (subchronic, duration: 30 days, oral, drinking water, M/F, Wistar, activity cage (ambulatory time) + activity cage (rearing time) + activity cage (sitting events) + activity cage (sitting time) + activity …) was 10.4 mg/kg-day and the NOEL (subchronic, duration: 30 days, oral, drinking water, M, Wistar, T-maze (number of errors, retention phase)) was 40 mg/kg-day. It also gave an LOEL (subchronic, duration: 30 days, oral, drinking water, M, Wistar, T-maze (number of sessions to reach learning criterion)) of 40 mg/kg-day, an LOEL [7] of 4.87 mg/kg-day and an NOEL [7] of 2.33 mg/kg-day. The NOEL (subchronic, duration: 30 days, oral, drinking water, M, Wistar, active avoidance (shuttle box, number of escapes of conditioned shock stimulus) + active avoidance (shuttle box, number of failures to avoid…) was 4.87 mg/kg-day, the LOEL (subchronic, duration: 30 days, oral, drinking water, M, Wistar, dental fluorosis_0 degrees + dental fluorosis_1 degree + open field (squares crossed, test session)) was 2.33 mg/kg-day and the NOEL (subchronic, duration: 30 days, oral, drinking water, M, Wistar, open field (squares crossed, day 1 - minute 1) + open field (squares crossed, day 1 - minute 2) + open field (squares crossed, day 1) + open…) was 6.67 mg/kg-day. For the same compound, the NOEL (subchronic, duration: 30 days, oral, drinking water, M, Wistar, passive avoidance (exploration, number of crossings) + passive avoidance (exploration, time in small compartment)) was 14.8 mg/kg-day, the LOEL (subchronic, duration: 30 days, oral, drinking water, M, Wistar, passive avoidance (retention, number of crossings) + passive avoidance (retention, time in small compartment) + T-maze (exploratory activity…) was 14.8 mg/kg-day and the LOEL (subchronic, duration: 30 days, oral, drinking water, M, Wistar, passive avoidance (retention, time in small compartment) + T-maze (exploratory activity) + T-maze (number of correct choices) + T-maze (…) was 14.8 mg/kg-day. The “LOEL (mg% thigh bone)” value (subchronic, duration: 30 days, oral, gavage, motor activity (spontaneous) + orienting reflex) was 10.6, the LOEL (subchronic, duration: 60 days, oral, drinking water, F, Wistar, activity cage (exploratory motor activity events) + rotarod (latency to fall, 14 rpm)) was 111 mg/kg-day and the LOEL (subchronic, duration: 60 days, oral, drinking water, F, Wistar, activity cage (motor activity events) + rotarod (latency to fall, 14 rpm)) was 1.94 mg/L serum. For the same compound, the LOEL (subchronic, duration: 60 days, oral, drinking water, Wistar, passive avoidance (retention, latency)) was 1.8 mg/kg-day, the LOEL (subchronic, duration: 60 days, oral, gavage, F, Wistar, activity cage (ambulation events)) was 9.05 mg/kg-day and the NOEL (subchronic, duration: 60 days, oral, gavage, F, Wistar, rotarod (latency to fall, 14 rpm)) was 18.1 mg/kg-day.

Reference: EPA's ToxValDB 9.5
